According to paper PMC10609114, “Melittin-Related Peptides Interfere with Sandfly Fever Naples Virus Infection by Interacting with Heparan Sulphate” (Microorganisms, 2023):
Peptide text beside a SMILES is read from it.

Experiments:
[1] = test system: Vero cells; assay: Cytotoxicity assay (MTT); assay type: cell-based; settings: 24 h at 37 °C, peptide 50 to 3.125 μM, triplicate
Method: Confluent Vero cells were treated with twofold serial dilutions of each peptide (50, 25, 12.5, 6.25, 3.125 μM). The 96-well plates were incubated at 37 °C/5% CO2 for 24 h; then, cell viability was analyzed by the 3-(4,5-Dimethylthiazol-2-yl)-2,5-Diphenyltetrazolium Bromide (MTT, Sigma-Aldrich, St. Louis, MO, USA) assay based on the reduction of the yellowish MTT to dark blue formazan salts. In brief, at the end of incubation, 100 μL of MTT solution (5 mg/mL) was incubated in each well for 3 h at 37 °C. Supernatant was removed and 100 μL of DMSO 100% (Sigma Aldrich) was added to dissolve formazan. Cytotoxicity was evaluated by spectrophotometric reading at 540 nm. Cell viability was calculated as a percentage of control cells. All experiments were performed in triplicate and means and standard deviations were reported. Nonlinear regression analysis was performed using GraphPad Prism software (version 8.0.1) to extract the CC50.
A preliminary experiment was carried out to evaluate the maximal non-cytotoxic concentration of RV-23 and AR-23. Twofold serial dilutions of each peptide were incubated with Vero cells for 24 h at 37 °C.
Figure 1 Cytotoxicity analysis after RV-23 and AR-23 treatment. Vero cells were treated with each peptide in the range of concentrations from 50 to 3.125 μM. After 24 h, MTT assay was carried out. Cell viability was calculated as a percentage of control cells. […]

[2] = test system: SFNV; assay: Antiviral co-treatment assay (CPE, crystal violet); assay type: cell-based, sandfly fever Naples virus; settings: Vero cells, peptide and SFNV (200 TCID50/mL) added together 1 h at 37 °C, CPE after 5 days; read-out: inhibitory concentration of 50% (IC50), co-treatment
Method: (§1) To analyze whether peptides were endowed with antiviral activity against SFNV, and, specifically, what stage of the infection was affected, different experimental procedures were carried out: (i) co-treatment assay: the cells (5 × 10^5/mL) were incubated with each peptide (at non-cytotoxic concentrations) and infected with the virus (200 TCID50/mL) at the same time (1 h at 37 °C); (ii) virus pre-treatment assay: […] and the mixture was subsequently titrated on cells; (iii) cell pre-treatment assay: cells were previously incubated with the peptide and then infected (1 h at 37 °C); (iv) post-treatment assay: peptide was incubated with the cells after the viral adsorption step (1 h at 37 °C). Following the incubation, the cell monolayer was rinsed three times with medium and than supplemented with DMEM 5% FBS. After 5 days post-infection, cythopathic effect (CPE) was observed and cells were stained with 0.5% crystal violet. All experiments were performed in triplicate. The inhibition rate of the infectivity was evaluated by CPE observed in the wells treated with the peptides to CPE in positive control (cells infected with virus, without peptide).
(§2) The difference between the assays was the timing of incubation of peptides on the cell monolayer. […]

[3] = test system: SFNV; assay: Antiviral virus pre-treatment assay (CPE, crystal violet); assay type: cell-based, sandfly fever Naples virus; settings: peptide incubated with SFNV 1 h at 37 °C, mixture titrated on Vero cells, CPE after 5 days; read-out: inhibitory concentration of 50% (IC50), virus pre-treatment
Method: as §1, §2

[4] = test system: SFNV; assay: Heparin assay: neutralization of SFNV infection by heparin; assay type: cell-based, sandfly fever Naples virus; settings: Vero cells, heparin 266.7 to 0.26 μM with SFNV (200 TCID50/mL) 1 h at 37 °C, CPE after 5 days
Method: To analyze if heparin could neutralize the virus binding to cells, Vero were infected with SFNV (200 TCID50/mL) and simultaneously treated with serial heparin dilutions (1.56, […], 25, 100, 400, and 1600 μg/mL) for 1 h at 37 °C. Then, the cell monolayer was washed with medium and incubated in the presence of DMEM 5% FBS for 5 days until the CPE appeared. To analyze the simultaneous effect of heparin and each peptide against SFNV infection, a standard concentration of RV-23 or AR-23 (10 μM) was incubated together with the same above-mentioned heparin concentrations. At the same time, the virus (200 TCID50/mL) was added to cell monolayer and subsequently incubated for 1 h at 37 °C. The infection was observed after 5 days infection via CPE.
Phleboviruses use GAGs for the viral entry, including heparin and heparan sulphate (HS). […] Different concentrations of heparin were incubated with the virus during the adsorption phase, and after 5 days of infection, the CPE was analyzed (Figure 3A).
Figure 3 Heparin assay. […] Serial heparin concentrations were incubated with the virus and each peptide […] on Vero cells, and after 5 days of infection, CPE was analyzed by crystal violet staining. […]

Molecule	Cytotoxicity (cell viability) in words [1]	IC50 [2]	IC50 [3]	Inhibition of SFNV infection by heparin [4]
CC[C@H](C)[C@H](NC(=O)[C@H](C)N)C(=O)NCC(=O)N[C@@H](CO)C(=O)N[C@H](C(=O)N[C@@H](CC(C)C)C(=O)NCC(=O)N[C@@H](C)C(=O)N[C@@H](CC(C)C)C(=O)N[C@@H](C)C(=O)N[C@@H](CCCCN)C(=O)NCC(=O)N[C@@H](CC(C)C)C(=O)N1CCC[C@H]1C(=O)N[C@H](C(=O)N[C@@H](CC(C)C)C(=O)N[C@H](C(=O)N[C@@H](CO)C(=O)N[C@@H](Cc1c[nH]c2ccccc12)C(=O)N[C@H](C(=O)N[C@@H](CCCCN)C(=O)N[C@@H](CC(N)=O)C(=O)N[C@@H](CCCNC(=N)N)C(N)=O)[C@@H](C)CC)[C@@H](C)CC)[C@@H](C)O)[C@@H](C)CC [AR-23] (H-AIGSILGALAKGLPTLISWIKNR-NH2)	consistently affected cell viability at 50 μM	12.5 µM	10 µM	–
CC[C@H](C)[C@H](NC(=O)[C@@H](N)CCCNC(=N)N)C(=O)NCC(=O)N[C@H](C(=O)N[C@@H](CC(C)C)C(=O)N[C@@H](CC(C)C)C(=O)N[C@@H](C)C(=O)N[C@@H](CCCNC(=N)N)C(=O)N[C@@H](CC(C)C)C(=O)N1CCC[C@H]1C(=O)N[C@@H](CCCCN)C(=O)N[C@@H](CC(C)C)C(=O)N[C@@H](Cc1ccccc1)C(=O)N[C@@H](CO)C(=O)N[C@@H](CC(C)C)C(=O)N[C@@H](Cc1ccccc1)C(=O)N[C@@H](CCCCN)C(=O)N[C@@H](CC(C)C)C(=O)N[C@@H](CCSC)C(=O)NCC(=O)N[C@@H](CCCCN)C(=O)N[C@@H](CCCCN)C(=O)N[C@H](C(N)=O)C(C)C)C(C)C [RV-23] (H-RIGVLLARLPKLFSLFKLMGKKV-NH2)	not cytotoxic up to the highest dose	10 µM	6.25 µM	–
heparin	–	–	–	strongly blocked the viral infection up to 4.2 μM
